Test results as given in article PMC12373846, “Hemoglobin as a pseudoperoxidase and drug target for oxidative stress-related diseases” (Signal Transduction and Targeted Therapy, 2025).

Test system: APP/PS1 mice
Assay: Immunohistochemistry of hippocampus, APP/PS1 mice
Assay type: in vivo, mouse
Experimental: For an animal model of AD, both sexes of 10- to 18-month-old APP/PS1 mice were maintained and used as previously described.[76],[77] To test the effects of novel H2O2-decomposing enhancers in the AD model, the mice were treated by i.p. injection with KDS12008 (3 mg/kg/day), KDS12017 (3 mg/kg/day), or KDS12025 (3 or 10 mg/kg/day) once per day for 1 or 2 weeks, depending on the experimental protocol. All drugs were dissolved in 200 μl of saline, and the amount of each drug was calculated on the basis of the weight (kg) of the mouse. Moreover, KDS12025 (3 mg/kg/day) was orally administered to the AD model for 2 weeks ad libitum.
The mice were deeply anesthetized with vaporized 1% isoflurane and placed into stereotaxic frames (RWD Life Science, China). Following an incision on the midline of the scalp, a hole was drilled into the skull above the hippocampus. AAV-GFAP104-GFP or AAV-GFAP104-DTR-GFP was bilaterally microinjected into the hippocampal CA1 region (AP, −2.0 mm; ML, ±1.5 mm; DV, −1.65 mm from the bregma). Diphtheria toxin (2 mg/ml) was administered for 16 days as previously described.[77] For shRNA knockdown, AAV-pSicoR-Hbβ-shRNA-mCherry or AAV-pSicoR-Sc-shRNA-mCherry was microinjected into the same coordinate system. A total of 0.8 µl of the virus was injected via a syringe pump (KD Scientific, USA). The injection procedures were implemented before 5 weeks of the experiments. For cell type-specific knockdown, AAV-pSico-Hbβ-shRNA-GFP or AAV-pSico-Sc-shRNA-GFP was combined with either AAV-CaMKII-Cre-mCherry for neuronal targeting or AAV-GFAP-Cre-mCherry for astrocyte targeting. The viruses were bilaterally injected into the hippocampus and substantia nigra via the same stereotaxic coordinates and injection procedures. All viruses used in this study were produced at the Institute for Basic Science virus facility (IBS virus facility, Korea). To investigate the effects of 0.1 mg/kg/day KDS12025, GiD mice were injected with diphtheria toxin (2 mg/ml) daily for 16 days. Concurrently, KDS12025 was administered ad libitum (0.1 mg/kg/day) during the same period.
The mice were deeply anesthetized with 2% isoflurane and positioned on the operating table. After the abdomen was opened and the heart was exposed, the […] were perfused with saline, followed by 4% paraformaldehyde (PFA) in 0.1 M PBS. The mice were decapitated, and the brains were excised from the skull. Excised brains were postfixed in 4% PFA overnight at 4 °C and dehydrated in 30% sucrose for 48 h. Coronal hippocampal sections were cut at 30 µm thickness with a cryostat and stored in storage solution. For the ALS experiments, lumbar spinal cords (L2–L5) were also carefully dissected and immediately immersed in 4% PFA for postfixation. The sections were fully washed in 0.1 M PBS and incubated for 1 h in blocking solution (0.3% Triton X-100, 2% donkey and goat serum in 0.1 M PBS). Next, a mixture of primary antibodies in the blocking solution was used for immunostaining on a shaker overnight at 4 °C. The sections were washed in PBS three times. After washing, the sections were incubated with the corresponding fluorescent secondary antibodies for 1 h at RT. DAPI staining was performed by adding a DAPI solution (1:2000) during the second washing step. After the washing step was complete, the sections were mounted on cover slides with mounting medium. A series of fluorescence images were obtained with an LSM900 (Zeiss, Germany) confocal microscope or Lattice SIM Elyra 7 (Zeiss, Germany). The 15–22 μm Z stack images in 1–2 μm steps were processed for image analysis, which was performed via the ImageJ (NIH, US) and ZEN digital imaging for light microscopy blue system (Zeiss, Germany) programs.

CNc1ccc(NCCc2ccccc2OC)cc1.Cl [KDS12025, N^1-(2-methoxyphenethyl)-N^4-methylbenzene-1,4-diamine hydrochloride salt]
mean intensity of GFAP in the hippocampus (10mpk i.p., Fig. S10i): 56.71±4.775
GFAP-positive area (APP+ScRNA+KDS12025, Fig. 6i): 142.4±8.715
GFAP intensity (APP+ScRNA+KDS12025, Fig. 6j): 124.3±1.773
Hbβ intensity in GFAP-positive areas (APP+ScRNA+KDS12025, Fig. 6h): 10.10±0.4531
Sholl analysis, sum of intersections (APP+ScRNA+KDS12025, Fig. S16e): 142.4±8.715
Sholl analysis, ending radius (APP+ScRNA+KDS12025, Fig. S16f): 54.48±2.319
Sholl analysis, number of intersections (APP+ScRNA+KDS12025, Fig. S16g): 4.984±0.7027
GFAP-positive area (APP+shHbβ+KDS12025, Fig. 6i): 234.3±16.93
GFAP intensity (APP+shHbβ+KDS12025, Fig. 6j): 146.8±2.262
Hbβ intensity in GFAP-positive areas (APP+shHbβ+KDS12025, Fig. 6h): 6.275±0.4473
Sholl analysis, sum of intersections (APP+shHbβ+KDS12025, Fig. S16e): 234.3±16.93
Sholl analysis, ending radius (APP+shHbβ+KDS12025, Fig. S16f): 100.4±6.075
Sholl analysis, number of intersections (APP+shHbβ+KDS12025, Fig. S16g): 5.314±0.9626
Hbβ intensity in GFAP-positive areas (APP+shHbβ::CaMKII+KDS12025, Fig. 6m): 110.5±1.59
GFAP-positive area (APP+shHbβ::CaMKII+KDS12025, Fig. 6n): 55.98±5.45
GFAP intensity (APP+shHbβ::CaMKII+KDS12025, Fig. 6o): 131.4±3.56
Sholl analysis, sum of intersections (APP+shHbβ::CaMKII+KDS12025, Fig. S17b): 42.1±3.9
Sholl analysis, ending radius (APP+shHbβ::CaMKII+KDS12025, Fig. S17c): 80.3±6.8
Hbβ intensity in GFAP-positive areas (APP+shHbβ::GFAP+KDS12025, Fig. 6m): 87.46±1.26
GFAP-positive area (APP+shHbβ::GFAP+KDS12025, Fig. 6n): 134.3±10.91
GFAP intensity (APP+shHbβ::GFAP+KDS12025, Fig. 6o): 152.1±5.50
Sholl analysis, sum of intersections (APP+shHbβ::GFAP+KDS12025, Fig. S17b): 57.9±3.7
Sholl analysis, ending radius (APP+shHbβ::GFAP+KDS12025, Fig. S17c): 109.8±5.4
